The subject of the test is human pluripotent stem cells (hPSCs). Put plainly: Mesendoderm induction: BRACHYURY immunofluorescence in hPSCs. The test is classed as cell-based. On the procedure: For differentiation experiments, hESCs or hiPSCs can be grown on Geltrex, washed once with PBS and dissociated into single cells with Accutase ([…] Technologies). Cells are plated at a density of 4×10^4 cells/cm^2 onto Geltrex-coated plates in mTeSR1 medium supplemented with the ROCK inhibitor Y27632 10 μM (Stemgent). Cells are fed daily with mTeSR1 without Y27632 for 2-3 days until they reached 50% confluency. Mesendoderm differentiation-the media is changed to Advanced RPMI (A-RPMI, Invitrogen) supplemented with 1×L-glutamax and 1× penicillin/streptomycin and either CHIR99021 (CHIR, Stemgent), human Wnt3a (R&D systems), and/or human activin A (R&D systems) at the doses described. Definitive endoderm differentiation-cells are treated with […] for 24 hours, then […]+100 ng/mL of activin A for 2-3 days. Hepatic differentiation-cells at the definitive endoderm stage are treated with […]27 supplement (Invitrogen)+20 ng/mL BMP-4 (R&D systems)+10 ng/mL FGF2 (Invitrogen) for 5 days, then […]27+10 ng/mL HGF for 5 days, then HCM Hepatocyte Culture Medium (Lonza) supplemented with 20 ng/mL Oncostatin M and 10 ng/mL HGF (Peprotech) for 5 days. Pancreatic differentiation-cells at the definitive endoderm stage are treated with DMEM/F12+2% FBS (Hyclone)+50 ng/mL FGF7 (R&D systems) for 2 days, then high-glucose DMEM (Mediatech)+1% B27+2 μM retinoic acid (Sigma)+0.25 μM KAAD cyclopamine (EMD Millipore)+100 ng/mL recombinant human Noggin (R&D systems) for 4 days, then high-glucose DMEM+1% B27+100 ng/mL Noggin+300 nM indolactam V (Stemgent)+1 μM ALK5 inhibitor II (Axxora) for 4 days. Anterior foregut endoderm differentiation-cells at the definitive endoderm stage are treated with DMEM/F12+1×L-glu+1×B27+200 ng/mL Noggin+10 μM SB431542 (Stemgent) for 3 days. […] Immunofluorescence is visualized using an inverted fluorescence microscope (Nikon Eclipse Ti, Tokyo, Japan). Quantification is performed by counting a minimum of five random fields at 10× magnification. […]

Regarding `Cc1c[nH]c(-c2cnc(NCCNc3ccc(C#N)cn3)nc2-c2ccc(Cl)cc2Cl)n1` [CHIR99021], the “cells expressing BRACHY” value (5 μM, 24 hours) turned out to be 98.7±1.3%. Under “summary statement”, the “efficiency of BRACHYURY+MIXL1+ mesendoderm differentiation” value is ~100%.

Values taken from patent US20160272937A1, “METHODS OF GENERATING INTERMEDIATE MESODERM CELLS FROM HUMAN PLURIPOTENT STEM CELLS” (THE BRIGHAM AND WOMEN'S HOSPITAL, INC., priority 2013, published 2016).
